The text below walks through data of patent US12630498B2 (Genzyme Corporation, priority 2019, dated 2026).

As usually defined, the EC50 is the concentration that produces a half-maximal response. A lower EC50 goes with higher potency in that assay. Broadly, the Emax is the greatest response seen or fitted, relative to the assay's reference.

In test [1] the target is T1, human Cystic Fibrosis Transmembrane Conductance Regulator (CFTR) harboring the ΔF508 mutation (Homo sapiens, UniProt P13569, DEL508-508).
T1 construct: expressed in transfected cells; host or cells: H441 carcinoma line (G418-selected)
Nature of the test: H441 cell ΔF508-CFTR-HRP cell surface assay (Emax and EC50). The class given is cell-based. The settings on record: for Emax: NCI-H441, NA = Not active. The method, boiled down: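 H441 and 41o- bronchial epithelial cells expressing ΔF508-CFTR with an extracellular-loop-4 HRP tag were treated with a 15-point compound series (24.5–0.001 μM) for two nights, H441 at 27° C, 41o- at 37° C with 0.0005 mg/ml doxycycline. Surface HRP luminescence read; % of maximum VX809 signal and EC50 derived.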

In test [2] the target is T2, CFTR-mediated transepithelial chloride transport in primary human bronchial epithelial cells from a ΔF508 homozygous CF donor (Homo sapiens, UniProt P13569, DEL508-508).
T2 construct: Primary human bronchial epithelial cells from a ΔF508 homozygous CF donor; host or cells: primary CF-HBE cells, ΔF508 homozygous donor
Nature of the test: TECC24 recording of CFTR-mediated transepithelial chloride transport in CF-HBE cells (AUC fold over DMSO). The format is cell-based. The settings on record: test agent 10 μM, 48 hours incubation, AUC of forskolin-stimulated IEQ relative to DMSO. The method, boiled down:
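Equivalent Cl⁻ current was derived from transepithelial voltage and resistance, and its AUC from forskolin (10 μM) to CFTRinh-172 (20 μM) was divided by the DMSO AUC. Benzamil 10 μM blocked ENaC. Cells were ΔF508-homozygous primary bronchial epithelia pretreated 48 h at 36.5 °C in IL-13 medium.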

T2 sequence (P13569 with tags, fused parts or gaps DEL508-508): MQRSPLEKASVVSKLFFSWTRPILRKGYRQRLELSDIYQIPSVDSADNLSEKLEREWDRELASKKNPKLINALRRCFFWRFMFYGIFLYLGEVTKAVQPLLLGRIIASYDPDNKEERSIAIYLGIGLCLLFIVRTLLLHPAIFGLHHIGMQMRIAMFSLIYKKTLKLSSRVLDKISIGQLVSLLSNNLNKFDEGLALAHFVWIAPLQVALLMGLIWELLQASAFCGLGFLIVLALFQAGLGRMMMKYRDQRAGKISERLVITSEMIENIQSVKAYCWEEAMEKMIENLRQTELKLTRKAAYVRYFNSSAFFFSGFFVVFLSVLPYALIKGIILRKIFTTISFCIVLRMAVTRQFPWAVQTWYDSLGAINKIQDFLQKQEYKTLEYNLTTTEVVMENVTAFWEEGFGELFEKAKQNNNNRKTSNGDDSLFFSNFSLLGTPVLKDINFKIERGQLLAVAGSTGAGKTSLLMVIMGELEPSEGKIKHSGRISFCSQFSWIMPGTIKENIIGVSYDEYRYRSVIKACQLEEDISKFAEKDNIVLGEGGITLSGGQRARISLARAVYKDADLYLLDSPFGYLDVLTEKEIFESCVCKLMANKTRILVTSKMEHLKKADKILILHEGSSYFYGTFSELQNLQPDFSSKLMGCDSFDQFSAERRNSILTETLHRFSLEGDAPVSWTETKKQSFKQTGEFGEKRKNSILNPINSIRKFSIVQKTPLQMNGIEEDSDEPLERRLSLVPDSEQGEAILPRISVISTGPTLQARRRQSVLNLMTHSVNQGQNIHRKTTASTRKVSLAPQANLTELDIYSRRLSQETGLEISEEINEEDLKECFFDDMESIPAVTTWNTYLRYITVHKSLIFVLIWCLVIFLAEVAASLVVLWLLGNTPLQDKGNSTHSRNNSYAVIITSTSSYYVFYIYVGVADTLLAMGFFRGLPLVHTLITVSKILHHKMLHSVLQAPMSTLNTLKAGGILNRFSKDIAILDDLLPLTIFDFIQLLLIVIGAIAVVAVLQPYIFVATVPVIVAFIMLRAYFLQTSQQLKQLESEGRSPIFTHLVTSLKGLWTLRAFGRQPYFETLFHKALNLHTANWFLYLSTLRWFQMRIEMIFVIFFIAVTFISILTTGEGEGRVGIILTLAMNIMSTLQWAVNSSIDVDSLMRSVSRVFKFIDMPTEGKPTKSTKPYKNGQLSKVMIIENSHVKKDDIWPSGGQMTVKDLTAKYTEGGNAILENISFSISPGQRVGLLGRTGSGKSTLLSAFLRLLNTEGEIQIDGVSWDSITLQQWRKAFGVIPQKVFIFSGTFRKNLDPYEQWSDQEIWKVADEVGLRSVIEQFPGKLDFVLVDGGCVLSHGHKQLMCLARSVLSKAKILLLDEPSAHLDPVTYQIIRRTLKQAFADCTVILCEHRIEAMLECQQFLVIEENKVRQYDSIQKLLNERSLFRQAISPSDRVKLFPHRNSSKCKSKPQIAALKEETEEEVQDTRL
T1 sequence (P13569 with tags, fused parts or gaps DEL508-508): as above

In test [1], `O=C(N[C@H](C(=O)O)c1ccccc1)c1ccc2ccccc2c1OCc1ccc(C(F)(F)F)cc1` [Example 140, (S)-2-phenyl-2-(1-((4-(trifluoromethyl)benzyl)oxy)-2-naphthamido)acetic Acid] displayed a concentration giving a half-maximal response (EC50) of 5700 nM and an Emax of 82.9%. Moreover, the “TECC24 AUC fold over DMSO @10 μM” value in test [2] is “C (“C” refers to AUC @10 uM <4)”.
For `CC(C)(C)C[C@H](NC(=O)c1ccc2ccccc2c1OCc1ccc(C(F)(F)F)cc1)C(=O)O` [Example 141, (S)-4,4-dimethyl-2-(1-((4-(trifluoromethyl)benzyl)oxy)-2-naphthamido)pentanoic Acid] the same measures were 2300 nM, 147% and “A (“A” refers to AUC @10 uM >6)”.
On to `O=C(N[C@H](C(=O)O)c1cccc2ccccc12)c1ccc2ccccc2c1OCc1ccc(C(F)(F)F)cc1` [Example 142, (S)-2-(naphthalen-1-yl)-2-(1-((4-(trifluoromethyl)benzyl)oxy)-2-naphthamido)acetic Acid], for which, in test [1], the midpoint of the response, the EC50, lay at 2200 nM and the Emax was 86.9%. For the same compound, the “TECC24 AUC fold over DMSO @10 μM” value in test [2] was “C (“C” refers to AUC @10 uM <4)”.
In test [1], `O=C(N[C@H](C(=O)O)C1Cc2ccccc2C1)c1ccc2ccccc2c1OCc1ccc(C(F)(F)F)cc1` [Example 143, (S)-2-(2,3-dihydro-1H-inden-2-yl)-2-(1-((4-(trifluoromethyl)benzyl)oxy)-2-naphthamido)acetic Acid] registered a concentration for a half-maximal effect (EC50) of 1900 nM and a maximum response (Emax) of 135%. In test [2], the “TECC24 AUC fold over DMSO @10 μM” value was “B (“B” refers to AUC @10 uM between 4-6)”.
For `C[C@@H](OCc1ccccc1)C(NC(=O)c1ccc2ccccc2c1OCC1CCCCC1)C(=O)O` (stereo partly drawn) [Example 150, (3R)-3-(benzyloxy)-2-(1-(cyclohexylmethoxy)-2-naphthamido)butanoic Acid] the same measures were 10900 nM, 82.5% and “C (“C” refers to AUC @10 uM <4)”.
`O=C(N[C@@H](Cc1c(Cl)cccc1Cl)C(=O)O)c1ccc2ccccc2c1OCc1ccc(C(F)(F)F)cc1` [Example 152, (S)-3-(2,6-dichlorophenyl)-2-(1-((4-(trifluoromethyl)benzyl)oxy)-2-naphthamido)propanoic Acid]: in test [1], the response was half-maximal at 7200 nM (EC50) and the maximal response (Emax) was 122%. Also, the “TECC24 AUC fold over DMSO @10 μM” value in test [2] is “C (“C” refers to AUC @10 uM <4)”.
Taken in the same sequence, the figures for `O=C(N[C@H](C(=O)O)C1CCCC1)c1ccc2cc(F)ccc2c1OCc1ccc(C(F)(F)F)cc1` [Example 153, (S)-2-cyclopentyl-2-(6-fluoro-1-((4-(trifluoromethyl)benzyl)oxy)-2-naphthamido)acetic Acid] were 1500 nM, 73.5% and “B (“B” refers to AUC @10 uM between 4-6)”.
Consider `O=C(N[C@H](C(=O)O)C1CCCC1)c1ccc2ccccc2c1OCc1ccc(C(F)(F)F)cc1` [Example 154, (S)-2-cyclopentyl-2-(1-((4-(trifluoromethyl)benzyl)oxy)-2-naphthamido)acetic Acid], for which, in test [1], the midpoint of the response, the EC50, lay at 1900 nM and the Emax came out at 118%. Besides, the “TECC24 AUC fold over DMSO @10 μM” value in test [2] is recorded as “A (“A” refers to AUC @10 uM >6)”.
In test [1], `O=C(N[C@H](C(=O)O)C1CCCC1)c1ccc2ccccc2c1OCC1CCC(F)(F)CC1` [Example 155, (S)-2-cyclopentyl-2-(1-((4,4-difluorocyclohexyl)methoxy)-2-naphthamido)acetic Acid] registered an EC50 of 4100 nM and an Emax of 60.7%. The “TECC24 AUC fold over DMSO @10 μM” value in test [2] is listed as “C (“C” refers to AUC @10 uM <4)”.
Regarding `CC(C)(SCC1CC1(F)F)[C@H](NC(=O)c1ccc2ccccc2c1OCc1ccc(C(F)(F)F)cc1)C(=O)O` (stereo partly drawn) [Example 163, (2R)-3-(((2,2-difluorocyclopropyl)methyl)thio)-3-methyl-2-(1-((4-(trifluoromethyl)benzyl)oxy)-2-naphthamido)butanoic Acid], in test [1], the concentration for a half-maximal effect (EC50) is 700 nM and the Emax is 138%. Further, in test [2], the “TECC24 AUC fold over DMSO @10 μM” value is “C (“C” refers to AUC @10 uM <4)”.
Taken in the same sequence, the figures for `CC(C)(SCC1CC1(F)F)[C@H](NC(=O)c1ccc2ccccc2c1OCc1ccc(SC(F)(F)F)cc1)C(=O)O` (stereo partly drawn) [Example 164, (2R)-3-(((2,2-difluorocyclopropyl)methyl)thio)-3-methyl-2-(1-((4-((trifluoromethyl)thio)benzyl)oxy)-2-naphthamido)butanoic Acid] were 600 nM, 112% and “C (“C” refers to AUC @10 uM <4)”.
Taken in the same sequence, the figures for `CC(C)(SCC1CC1(F)F)[C@H](NC(=O)c1ccc2ccccc2c1OCC1CCCCC1)C(=O)O` (stereo partly drawn) [Example 165, (2R)-2-(1-(cyclohexylmethoxy)-2-naphthamido)-3-(((2,2-difluorocyclopropyl)methyl)thio)-3-methylbutanoic Acid] were 3400 nM, 113% and “C (“C” refers to AUC @10 uM <4)”.
In test [1], `CC(C)(SCC1CC1(F)F)[C@H](NC(=O)c1ccc2cc(F)ccc2c1OCc1ccc(SC(F)(F)F)cc1)C(=O)O` (stereo partly drawn) [Example 167, (2R)-3-(((2,2-difluorocyclopropyl)methyl)thio)-2-(6-fluoro-1-((4-((trifluoromethyl)thio)benzyl)oxy)-2-naphthamido)-3-methylbutanoic Acid] had an EC50 of 1200 nM and an Emax of 63.5%. For the same compound, the “TECC24 AUC fold over DMSO @10 μM” value in test [2] is recorded as “C (“C” refers to AUC @10 uM <4)”.
Consider `CC(C)(SC1CCCC1)[C@H](NC(=O)c1ccc2ccccc2c1OCc1ccc(C(F)(F)F)cc1)C(=O)O` [Example 168, (R)-3-(cyclopentylthio)-3-methyl-2-(1-((4-(trifluoromethyl)benzyl)oxy)-2-naphthamido)butanoic Acid], for which, in test [1], the 50% effective concentration (EC50) was determined as 800 nM and the Emax amounted to 157%. Besides, the “TECC24 AUC fold over DMSO @10 μM” value in test [2] is recorded as “B (“B” refers to AUC @10 uM between 4-6)”.
For `CC(C)(SC1CCCC1)[C@H](NC(=O)c1ccc2ccccc2c1OCc1ccc(SC(F)(F)F)cc1)C(=O)O` [Example 169, (R)-3-(cyclopentylthio)-3-methyl-2-(1-((4-((trifluoromethyl)thio)benzyl)oxy)-2-naphthamido)butanoic Acid], in test [1], a half-maximal effect (EC50) was put at 400 nM and the Emax was 138%. For the same compound, the “TECC24 AUC fold over DMSO @10 μM” value in test [2] is “B (“B” refers to AUC @10 uM between 4-6)”.
In test [1], `CC(C)(SC1CCCC1)[C@H](NC(=O)c1ccc2ccccc2c1OCC1CCCCC1)C(=O)O` [Example 170, (R)-2-(1-(cyclohexylmethoxy)-2-naphthamido)-3-(cyclopentylthio)-3-methylbutanoic Acid] had a half-maximal effective concentration (EC50) of 5000 nM and an Emax of 143%. For the same compound, the “TECC24 AUC fold over DMSO @10 μM” value in test [2] is “C (“C” refers to AUC @10 uM <4)”.
For `CC(C)(SC1CCCC1)[C@H](NC(=O)c1ccc2cc(F)ccc2c1OCc1ccc(SC(F)(F)F)cc1)C(=O)O` [Example 172], in test [1], a half-maximal effect (EC50) was put at 500 nM and the Emax was found to be 62.7%. Besides, the “TECC24 AUC fold over DMSO @10 μM” value in test [2] is “C (“C” refers to AUC @10 uM <4)”.
With `CC(C)(S[C@@H]1C[C@@H]2CC[C@H]1C2)[C@H](NC(=O)c1ccc2ccccc2c1OCc1ccc(C(F)(F)F)cc1)C(=O)O` [Example 173, (R)-3-(((1S,2R,4R)-bicyclo[2.2.1]heptan-2-yl)thio)-3-methyl-2-(1-((4-(trifluoromethyl)benzyl)oxy)-2-naphthamido)butanoic Acid], in test [1], the midpoint of the response, the EC50, lay at 700 nM and the maximal response (Emax) was found to be 164%. In test [2], the “TECC24 AUC fold over DMSO @10 μM” value was “B (“B” refers to AUC @10 uM between 4-6)”.
`CC(C)(S[C@@H]1C[C@@H]2CC[C@H]1C2)[C@H](NC(=O)c1ccc2ccccc2c1OCc1ccc(SC(F)(F)F)cc1)C(=O)O` [Example 174, (R)-3-(((1S,2R,4R)-bicyclo[2.2.1]heptan-2-yl)thio)-3-methyl-2-(1-((4-((trifluoromethyl)thio)benzyl)oxy)-2-naphthamido)butanoic Acid]: in test [1], the EC50 stood at 300 nM and the Emax came out at 117%. Also, in test [2], the “TECC24 AUC fold over DMSO @10 μM” value was “C (“C” refers to AUC @10 uM <4)”.
Turning to `CC(C)(SC1CC2CCC1C2)[C@H](NC(=O)c1ccc2ccccc2c1OCC1CCCCC1)C(=O)O` (stereo partly drawn) [Example 175], in test [1], the midpoint of the response, the EC50, lay at 3000 nM and the Emax came to 152%. Also, the “TECC24 AUC fold over DMSO @10 μM” value in test [2] was “C (“C” refers to AUC @10 uM <4)”.
`CC(C)(S[C@@H]1C[C@@H]2CC[C@H]1C2)[C@H](NC(=O)c1ccc2cc(F)ccc2c1OCc1ccc(SC(F)(F)F)cc1)C(=O)O` [Example 177, (R)-3-(((1S,2R,4R)-bicyclo[2.2.1]heptan-2-yl)thio)-2-(6-fluoro-1-((4-((trifluoromethyl)thio)benzyl)oxy)-2-naphthamido)-3-methylbutanoic Acid]: in test [1], a half-maximal effect (EC50) was put at 700 nM and the Emax worked out at 64.7%. Also, the “TECC24 AUC fold over DMSO @10 μM” value in test [2] is “C (“C” refers to AUC @10 uM <4)”.
In test [1], `Cc1cc(C)c(C[C@H](NC(=O)c2ccc3ccccc3c2OCc2ccc(C(F)(F)F)cc2)C(=O)O)c(C)c1` [Example 178, (S)-3-mesityl-2-(1-((4-(trifluoromethyl)benzyl)oxy)-2-naphthamido)propanoic Acid] yielded a half-maximal effective concentration (EC50) of 900 nM and an Emax of 150%. The “TECC24 AUC fold over DMSO @10 μM” value in test [2] is listed as “C (“C” refers to AUC @10 uM <4)”.
